Test results: US10000488B2, “Heterocyclic compound” (TAKEDA PHARMACEUTICAL COMPANY LIMITED, priority 2014, dated 2018)
Blank lines part the entries; values can stand above or below the compound they belong to.

Key:
[1] = molecular target: T1, RORγt (Homo sapiens, UniProt P51449); test: Cofactor recruitment test (Alpha Screen, biotinylated SRC-1 peptide); type: biochemical; details: read-out: signal value inhibitory rate (%) at test compound 1 μM
T1 sequence (P51449 1-497 isoform P51449-2): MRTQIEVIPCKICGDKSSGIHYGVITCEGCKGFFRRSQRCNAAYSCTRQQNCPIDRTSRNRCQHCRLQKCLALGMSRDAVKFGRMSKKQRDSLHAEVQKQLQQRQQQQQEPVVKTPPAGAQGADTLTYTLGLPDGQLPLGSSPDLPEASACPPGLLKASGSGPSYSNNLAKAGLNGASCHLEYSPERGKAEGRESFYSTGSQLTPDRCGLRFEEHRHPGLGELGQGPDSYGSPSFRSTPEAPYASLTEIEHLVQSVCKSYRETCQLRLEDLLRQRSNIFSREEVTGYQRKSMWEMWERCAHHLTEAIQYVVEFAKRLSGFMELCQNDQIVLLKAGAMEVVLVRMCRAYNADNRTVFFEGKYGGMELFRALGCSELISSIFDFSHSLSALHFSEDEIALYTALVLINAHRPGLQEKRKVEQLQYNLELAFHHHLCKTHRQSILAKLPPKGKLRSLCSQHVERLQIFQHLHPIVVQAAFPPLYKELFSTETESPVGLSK
Experimental: Cofactor Recruitment Test
Cofactor recruitment test was performed by Alpha Screen (Histidine Detection Kit, PerkinElmer) method. First, a test compound was diluted with an assay buffer (50 mM Tris-HCl (pH 7.5), 50 mM KCl, 1 mM DTT, 0.1% BSA) and added to a 384 well plate by 5 μL. […] The mixture was stood in a dark place for 1 hr, and the signal value was measured by Envision (PerkinElmer).

[2] = molecular target: T1, RORγt; test: RORγt binding test using fluorescent-labeled synthetic ligand (TR-FRET); details: test compound 1 μM; read-out: binding inhibitory rate (%) of fluorescent-labeled synthetic ligand to RORγt at test compound 1 μM
Experimental: RORγt Binding Test Using Fluorescent-Labeled Synthetic Ligand
The binding activity of the test compound to RORγt was measured by a time resolved fluorescence resonance energy transfer (TR-FRET) utilizing histidine-tagged RORγt, fluorescent-labeled synthetic ligand, and terbium-labeled anti-histidine tag antibody (Invitrogen). First, a test compound diluted with an assay buffer (20 mM Tris-HCl (pH 7.5), 100 mM NaCl, 1 mM DTT, 0.1% BSA) was added to a 384 well plate by 3 μL. Then, RORγt diluted with an assay buffer to 240 nM was added by 3 μL, after which fluorescent-labeled synthetic ligand diluted with the assay buffer to 12 μM was added by 3 μL, and the mixture was stood at room temperature for 20 min. Thereafter, a terbium-labeled anti-histidine tag antibody diluted with the assay buffer to 8 nM was added by 3 μL. The mixture was stood at room temperature for 20 min, and fluorescence intensity (excitation wavelength 320 nm, fluorescence wavelength 520 nm, delay time 100 microseconds) was measured by Envision (PerkinElmer).

[3] = molecular target: T1, RORγt; test: Jurkat reporter test (human IL-17 ROR response element luciferase reporter, RORγt vector); type: cell-based; details: test compound 3 μM; Jurkat cells; read-out: luminescence level inhibitory rate (%) at test compound 3 μM
Experimental: The Jurkat cells used for the reporter test were cultured in a culture medium (RPMI (Invitrogen), 10% FCS (AusGeneX), 100 U/mL penicillin, 100 μg/mL streptomycin). On the day of the test, 4×10^7 cells were recovered by a centrifugal operation (1000 rpm, for 5 min) and suspended in PBS (phosphate buffered saline) (Invitrogen). Thereafter, the cells were recovered again by a centrifugal operation, and suspended in 2 mL of R buffer (NEON transfection kit, Invitrogen). […] Gene transfer was performed by Electroporation apparatus (NEON, Invitrogen) under the conditions of pulse voltage 1350 V, interval 10 milliseconds, number of times 3. The cells after gene transfer were suspended in 40 mL of a reaction medium (RPMI, 10% Lipid reduced FCS (HyClone), 10 mM HEPES (pH 7.5), 100 U/mL penicillin, 100 μg/mL streptomycin, 5 μM lovastatin), and plated in a 96 well plate by 90 μL. A test compound diluted with the reaction medium was added by 10 μL, and the cells were cultured overnight in an incubator. Bright-Glo (Promega) was added by 100 μL, and the mixture was stirred at room temperature for 10 min, and the luminescence level was measured by Envision (PerkinElmer).

inhibition at 1 µM [1]: 104% | inhibition at 1 µM [2]: 102% | inhibition at 3 µM [3]: 104%
SMILES: CC(C)n1c(=O)n(CC2CC2)c(=O)c2cc(NC(=O)N3CCC[C@@H](NC(=O)c4cccc(Cl)c4)C3)ccc21 [Example 248, (3R)-3-((3-chlorobenzoyl)amino)-N-(3-(cyclopropylmethyl)-1-isopropyl-2,4-dioxo-1,2,3,4-tetrahydroquinazolin-6-yl)piperidine-1-carboxamide]

inhibition at 1 µM [1]: 89% | inhibition at 1 µM [2]: 102% | inhibition at 3 µM [3]: 101%
SMILES: CC(C)n1c(=O)n(CC2CC2)c(=O)c2cc(NC(=O)N3CCC[C@@H](NC(=O)c4ccc(CNC(=O)OC(C)(C)C)cc4)C3)ccc21 [Example 274, tert-Butyl (4-(((3R)-1-((3-(cyclopropylmethyl)-1-isopropyl-2,4-dioxo-1,2,3,4-tetrahydroquinazolin-6-yl)carbamoyl)piperidin-3-yl)carbamoyl)benzyl) carbamate]

inhibition at 1 µM [1]: 95% | inhibition at 1 µM [2]: 101% | inhibition at 3 µM [3]: 103%
SMILES: CC(C)n1c(=O)n(CC2CC2)c(=O)c2cc(NC(=O)N3CCC[C@@H](NC(=O)c4ccc(CNC(=O)OC(C)(C)C)cc4)C3)c(F)cc21 [Example 319, tert-Butyl (4-(((3R)-1-((3-(cyclopropylmethyl)-7-fluoro-1-isopropyl-2,4-dioxo-1,2,3,4-tetrahydroquinazolin-6-yl)carbamoyl)piperidin-3-yl)carbamoyl)benzyl)carbamate]

inhibition at 1 µM [1]: 110% | inhibition at 1 µM [2]: 102% | inhibition at 3 µM [3]: 101%
SMILES: CC(C)n1c(=O)n(CC2CC2)c(=O)c2cc(NC(=O)N3CCC[C@@H](NC(=O)c4ccc(C#N)cc4F)C3)ccc21 [Example 219, (3R)-3-((4-cyano-2-fluorobenzoyl)amino)-N-(3-(cyclopropylmethyl)-1-isopropyl-2,4-dioxo-1,2,3,4-tetrahydroquinazolin-6-yl)piperidine-1-carboxamide]

inhibition at 1 µM [1]: 107% | inhibition at 1 µM [2]: 102% | inhibition at 3 µM [3]: 101%
SMILES: COc1ccc(C(=O)N[C@@H]2CCCN(C(=O)Nc3cc4c(=O)n(CC5CC5)c(=O)n(C(C)C)c4cc3F)C2)c(F)c1 [Example 291, (3R)-N-(3-(cyclopropylmethyl)-7-fluoro-1-isopropyl-2,4-dioxo-1,2,3,4-tetrahydroquinazolin-6-yl)-3-((2-fluoro-4-methoxybenzoyl)amino)piperidine-1-carboxamide]

inhibition at 1 µM [1]: 108% | inhibition at 1 µM [2]: 102% | inhibition at 3 µM [3]: 103%
SMILES: CC(C)n1c(=O)n(CC2CC2)c(=O)c2cc(NC(=O)N3CCC[C@@H](N4Cc5ccc(C#N)cc5C4=O)C3)c(F)cc21 [Example 323, (3R)-3-(6-cyano-1-oxo-1,3-dihydro-2H-isoindol-2-yl)-N-(3-(cyclopropylmethyl)-7-fluoro-1-isopropyl-2,4-dioxo-1,2,3,4-tetrahydroquinazolin-6-yl)piperidine-1-carboxamide]

inhibition at 1 µM [1]: 105% | inhibition at 1 µM [2]: 102% | inhibition at 3 µM [3]: 103%
SMILES: Cc1ccc(C(=O)N[C@@H]2CCCN(C(=O)Nc3ccc4c(c3)c(=O)n(CC3CC3)c(=O)n4C(C)C)C2)s1 [Example 242, (3R)-N-(3-(cyclopropylmethyl)-1-isopropyl-2,4-dioxo-1,2,3,4-tetrahydroquinazolin-6-yl)-3-(((5-methyl-2-thienyl)carbonyl)amino)piperidine-1-carboxamide]

Continued, compound first:

SMILES: CC(C)n1c(=O)n(CC2CC2)c(=O)c2cc(NC(=O)N3CCO[C@@H](C(=O)Nc4ccc(C#N)c(Cl)c4)C3)c(F)cc21 [Example 235, (2R)-N^2-(3-chloro-4-cyanophenyl)-N^4-(3-(cyclopropylmethyl)-7-fluoro-1-isopropyl-2,4-dioxo-1,2,3,4-tetrahydroquinazolin-6-yl)morpholine-2,4-dicarboxamide]
inhibition at 1 µM [1]: 109% | inhibition at 1 µM [2]: 102% | inhibition at 3 µM [3]: 103%

SMILES: CC(C)n1c(=O)n(CC2CC2)c(=O)c2cc(NC(=O)N3CCO[C@@H](C(=O)Nc4ccc(C#N)c(F)c4)C3)c(F)cc21 [Example 172, (2R)-N^2-(4-cyano-3-fluorophenyl)-N^4-(3-(cyclopropylmethyl)-7-fluoro-1-isopropyl-2,4-dioxo-1,2,3,4-tetrahydroquinazolin-6-yl)morpholine-2,4-dicarboxamide]
inhibition at 1 µM [1]: 111% | inhibition at 1 µM [2]: 102% | inhibition at 3 µM [3]: 105%

SMILES: CC(C)n1c(=O)n(CC2CC2)c(=O)c2cc(NC(=O)N3CCO[C@@H](C(=O)Nc4cc(F)c(C#N)cc4F)C3)c(F)cc21 [Example 171, (2R)-N^2-(4-cyano-2,5-difluorophenyl)-N^4-(3-(cyclopropylmethyl)-7-fluoro-1-isopropyl-2,4-dioxo-1,2,3,4-tetrahydroquinazolin-6-yl)morpholine-2,4-dicarboxamide]
inhibition at 1 µM [1]: 107% | inhibition at 1 µM [2]: 101% | inhibition at 3 µM [3]: 103%

SMILES: CC(C)n1c(=O)n(C[C@@H]2CCCO2)c(=O)c2cc(NC(=O)N3CCO[C@@H](C(=O)Nc4ccc(C#N)c(Cl)c4)C3)c(F)cc21 [Example 357, (2R)—N^2-(3-chloro-4-cyanophenyl)-N^4-(7-fluoro-1-isopropyl-2,4-dioxo-3-((2S)-tetrahydrofuran-2-ylmethyl)-1,2,3,4-tetrahydroquinazolin-6-yl)morpholine-2,4-dicarboxamide]
inhibition at 1 µM [1]: 107% | inhibition at 1 µM [2]: 101% | inhibition at 3 µM [3]: 106%

SMILES: CC(C)n1c(=O)n(CC2CCOC2)c(=O)c2cc(NC(=O)N3CCO[C@@H](C(=O)Nc4ccc(C#N)c(Cl)c4)C3)c(F)cc21 (stereo partly drawn) [Example 335, (2R)—N^2-(3-chloro-4-cyanophenyl)-N^4-(7-fluoro-1-isopropyl-2,4-dioxo-3-(tetrahydrofuran-3-ylmethyl)-1,2,3,4-tetrahydroquinazolin-6-yl)morpholine-2,4-dicarboxamide]
inhibition at 1 µM [1]: 108% | inhibition at 1 µM [2]: 101% | inhibition at 3 µM [3]: 106%

SMILES: CC(C)n1c(=O)n(CC2CC2)c(=O)c2cc(NC(=O)N3CCNC(C(=O)Nc4ccc(C#N)c(Cl)c4)C3)ccc21 (stereo not drawn) [Example 82, N^3-(3-chloro-4-cyanophenyl)-N^1-(3-(cyclopropylmethyl)-1-isopropyl-2,4-dioxo-1,2,3,4-tetrahydroquinazolin-6-yl)piperazine-1,3-dicarboxamide]
inhibition at 1 µM [1]: 103% | inhibition at 1 µM [2]: 101% | inhibition at 3 µM [3]: 102%

SMILES: CC(C)n1c(=O)n(CC2CC2)c(=O)c2cc(NC(=O)N3CCC[C@@H](NC(=O)c4ccc(C#N)cc4)C3)ccc21 [Example 218, (3R)-3-((4-cyanobenzoyl)amino)-N-(3-(cyclopropylmethyl)-1-isopropyl-2,4-dioxo-1,2,3,4-tetrahydroquinazolin-6-yl)piperidine-1-carboxamide]
inhibition at 1 µM [1]: 111% | inhibition at 1 µM [2]: 102% | inhibition at 3 µM [3]: 103%

SMILES: COC(=O)c1ccc(C(=O)NC2CCCN(C(=O)Nc3ccc4c(c3)c(=O)n(CC3CC3)c(=O)n4C(C)C)C2)cc1 (stereo not drawn) [Example 132, methyl 4-((1-((3-(cyclopropylmethyl)-1-isopropyl-2,4-dioxo-1,2,3,4-tetrahydroquinazolin-6-yl)carbamoyl)piperidin-3-yl)carbamoyl)benzoate]
inhibition at 1 µM [1]: 112% | inhibition at 1 µM [2]: 102% | inhibition at 3 µM [3]: 100%
